Several values for one entry are separate records, joined by “and”; a condition that tells them apart may be missing. Equal values may be shown once.
How the values were obtained:
[1] = system: human glioma U87MG subcutaneous xenografts; test: Human glioma U87MG subcutaneous xenografts in nude mice; type: in vivo, BALB/c nude mice; conditions: 40 mg/kg bid × 21 po
Experimental: BALB/c nude female mice of 3-4 weeks old were used, and were provided by […] […] OF MATERIA MEDICA, CHINESE ACADEMY OF SCIENCES.
Human glioma U87MG cells were subcutaneously inoculated into the right axillary fossa of a nude mouse (5×10^6 cells/mouse). After a xenograft was formed, the tumor was transferred to a nude mouse for 1 passage.
Tumor tissues at the vigorous growth stage were removed and cut into pieces of approximately 1.5 mm^3. The tumor fragments were inoculated subcutaneously into the right axillary fossa of nude mice under aseptic conditions. The diameters of the subcutaneous xenografts in nude mice were measured with a vernier caliper. The animals were randomly grouped after the xenografts reached an average volume of about 90 mm^3. Compound I was administered orally at doses of 40 mg/kg, 20 mg/kg and 10 mg/kg twice a day for 21 consecutive days. An equal volume of a blank preparation was administered orally twice a day for 21 consecutive days. The positive control drug Axitinib was administered orally at a dose of 40 mg/kg group twice a day for 21 consecutive days. An equal volume of water for injection was administered to the animals in the solvent group. Throughout the experiment, the diameters of the xenografts were measured twice a week and the mice were weighed at the same time. The tumor volume (TV) was calculated as TV=½×a×b^2, where “a” and “b” denote the length and width of a tumor, respectively. The relative tumor volume (RTV) was calculated from the measurement results with the calculation formula RTV=Vt/V0, in which V0 is the tumor volume measured upon administration after grouping (i.e., D0) and Vt is the tumor volume from each measurement. The evaluation index of anti-tumor activity is the relative tumor proliferation rate T/C (%), which is calculated as T/C (%)=(TRTV/CRTV)×100%, in which TRTV denotes the RTV from the treatment group and CRTV denotes the RTV from solvent group.

[2] = system: human colorectal cancer HT-29 subcutaneous xenografts; test: Human colorectal cancer HT-29 subcutaneous xenografts in nude mice; type: in vivo, BALB/c nude mice; conditions: 40 mg/kg bid × 21 po
Description: BALB/c female nude mice of 6 weeks old were used, and were provided by Shanghai Lingchang Biotechnology Co., Ltd.
Human colorectal cancer HT-29 cells were subcutaneously inoculated into the right axillary fossa of a nude mouse (5×10^6 cells/mouse). After a xenograft was formed, the tumor was transferred to a nude mouse for 1 passage.
Tumor tissues at the vigorous growth stage were removed and cut into pieces of approximately 1.5 mm^3. The tumor fragments were inoculated subcutaneously into the right axillary fossa of nude mice under aseptic conditions. The diameters of the subcutaneous xenografts in nude mice were measured with a vernier caliper. The animals were randomly grouped after the xenografts reached an average volume of about 120 mm^3. Compound I was administered orally at doses of 20 mg/kg, 10 mg/kg and 5 mg/kg twice a day for 21 consecutive days. An equal volume of a blank preparation was administered orally twice a day for 21 consecutive days. The positive control drug Axitinib was administered orally at a dose of 40 mg/kg group twice a day for 21 consecutive days. An equal volume of water for injection was administered to the animals in the solvent group. Throughout the experiment, the diameters of the xenografts were measured twice a week and the mice were weighed at the same time. The tumor volume (TV) was calculated as TV=½×a×b^2, where “a” and “b” denote the length and width of a tumor, respectively. The relative tumor volume (RTV) was calculated from the measurement results with the calculation formula RTV=Vt/V0, in which V0 is the tumor volume measured upon administration after grouping (i.e., D0) and Vt is the tumor volume from each measurement. The evaluation index of anti-tumor activity is the relative tumor proliferation rate T/C (%), which is calculated as T/C (%)=(TRTV/CRTV)×100%, in which TRTV denotes the RTV from the treatment group and CRTV denotes the RTV from solvent group.

[3] = system: macrophage marker F4/80 in U87MG tumor tissues; test: Immunohistochemistry of macrophage marker F4/80 in U87MG tumor tissues; type: in vivo, nude mice; conditions: 40 mg/kg, compared with blank preparation group
Experimental: (§1) At the end of the in vivo experiments, U87MG and HT-29 xenografts in nude mice were removed and fixed with […] to prepare paraffin sections.
(§2) Expression of individual proteins was assessed using multiplicative quick score method (MQS). This evaluation method takes into account both the staining intensity and the staining range. The method estimates the proportion of positive cells and gives a range score from 1 to 6 (1=1%-4%; 2=5%-19%; 3=20%-39%; 4=40%-59%; 5=60%-79%; 6=80%-100%). The average intensity score of positive stained cells was 0 to 3 (0=no staining; 1=weak staining; 2=moderate staining; 3=strong staining). The total score a (minimum 0 and maximum 18) is then calculated by multiplying the range score by the intensity score.
(§3) For detecting the changes in the macrophage marker F4/80 and M2-type macrophage marker CD206 in the U87MG tumor tissues, quantitative analysis (solvent: n=6, blank preparation: n=6, Compound I (10 mg/kg): n=6, Compound I (20 mg/kg): n=6, Compound I (40 mg/kg): n=6, Axitinib: n=4) was performed on all sections and the experimental data were analyzed for significant differences using the t-test. * denotes p<0.05 as compared with the blank preparation group, ** denotes p<0.01 as compared with the blank preparation group, and denotes p<0.001 as compared with the blank preparation group.

[4] = system: M2-type macrophage marker CD206 in U87MG tumor tissues; test: Immunohistochemistry of M2-type macrophage marker CD206 in U87MG tumor tissues; type: in vivo, nude mice; conditions: 40 mg/kg
Experimental: as §1, §2, §3

[5] = system: macrophage marker F4/80 in HT-29 tumor tissues; test: Immunohistochemistry of macrophage marker F4/80 in HT-29 tumor tissues; type: in vivo, nude mice; conditions: Compound I 5, 10, 20 mg/kg; Axitinib 40 mg/kg
Experimental: At the end of the in vivo experiments, U87MG and HT-29 xenografts in nude mice were removed and fixed with […] to prepare paraffin sections. Expression of individual proteins was assessed using multiplicative quick score method (MQS). This evaluation method takes into account both the staining intensity and the staining range. […] The average intensity score of positive stained cells was 0 to 3 (0=no staining; 1=weak staining; 2=moderate staining; 3=strong staining). The total score a (minimum 0 and maximum 18) is then calculated by multiplying the range score by the intensity score.

[6] = system: M2-type macrophage marker CD206 in HT-29 tumor tissues; test: Immunohistochemistry of M2-type macrophage marker CD206 in HT-29 tumor tissues; type: in vivo, nude mice; conditions: Compound I 5, 10, 20 mg/kg; Axitinib 40 mg/kg
Experimental: as §1, §2
For detecting the changes in the macrophage marker F4/80 and M2-type macrophage marker CD206 in the HT-29 tumor tissues, quantitative analysis (solvent: n=12, blank preparation: n=6, Compound I (5 mg/kg): n=6, Compound I (10 mg/kg): n=6, Compound I (20 mg/kg): n=6, Axitinib: n=6) was performed on all sections and the experimental data were analyzed for significant differences using the t-test. * denotes p<0.05 as compared with the blank preparation group, ** denotes p<0.01 as compared with the blank preparation group, and denotes p<0.001 as compared with the blank preparation group.

[7] = system: human glioma U87MG brain in situ transplantation; test: Survival in U87MG brain in situ transplantation model in nude mice; type: in vivo, BALB/cA nude mice
BMDM cells = test: CCK8 cell proliferation inhibition assay on CSF1-stimulated bone marrow-derived macrophages; type: cell-based, mice (BALB/c); conditions: Mus musculus, 72 h exposure
Experimental: Mice (BALB/c) were subjected to euthanasia and then immersed in 75% alcohol for 3-5 min. The tibias and femurs of the mice were removed with ophthalmic forceps and ophthalmic clips on an ultraclean table. The tibial and femoral joints were cut off and bone marrow cells were washed out with a sterile buffer. Bone marrow cells were filtered with a 70 µm nylon membrane. The filtrate was centrifuged and the supernatant was discarded. An erythrocyte lysate was added to the pellets, which were allowed to incubate for 3-4 min. Then, a sterile buffer was added to stop the lysis reaction. The reactant was centrifuged and the supernatant was discarded, thereby yielding bone marrow cell pellets. The cells were cultured in 1640 medium (supplemented with FBS and 10 ng/mL of CSF1) for 5 to 7 days and identified as macrophages by flow cytometry. CCK8 cell counting kits were used in this assay. Bone marrow-derived macrophages, after induction by CSF1 for 5 to 7 days, were seeded into 96-well culture plates and allowed to incubate overnight. Then, the cells were exposed to compounds at various concentrations for 72 h. A blank control group was set. 10 μL of CCK8 reagent was added to each well and the places were placed in an incubator for 4 to 12 h. The plates were read with a microplate reader at a wavelength of 450 nm. […] Each experiment was independently repeated for three times.

[8] = treated patients; cited from earlier work
[9] = 40 mg/kg, implantation day as Day 0

Compound: CNC(=O)c1ccccc1Sc1ccc2c(/C=C/c3ccccn3)n[nH]c2c1 [Axitinib, reference compound]
- Body Weight (g) D 0 ([1]; D 0): 16.0 g
- TV (mm^3, mean ± SD) D 0 ([1]; D 0): 88 ± 17 mm^3
- Body Weight (g) D 21 ([1]; D 21): 18.0 g
- RTV (mean ± SD) ([1]; D 21): 9.08 ± 5.66
- TV (mm^3, mean ± SD) D 21 ([1]; D 21): 795 ± 478 mm^3
- T/C (%) ([1]; Day 21): 30.27%
- Body Weight (g) D 0 ([2]; D 0): 19.1 g
- TV (mm3, mean ± SD) D 0 ([2]; D 0): 123 ± 35 mm3
- Body Weight (g) D 21 ([2]; D 21): 17.5 g
- RTV (mean ± SD) ([2]; D 21): 4.30 ± 1.82
- TV (mm3, mean ± SD) D 21 ([2]; D 21): 505 ± 202 mm3
- T/C (%) ([2]; Day 21): 48.88%
- expression of F4/80 in macrophages, U87MG tumor tissue [3]: no significant effect
- expression of M2-type macrophage marker CD206, U87MG tumor tissue [4]: no significant effect
- expression of F4/80, HT-29 tumor tissue [5]: no inhibitory activity
- expression of CD206, HT-29 tumor tissue [6]: no inhibitory activity
- Median survival time, MST ([7]; 40 mg/kg po twice a day from Day 8): 41 days and 41.0 days
- day of first death in the group [7, 9]: 28 days
- day of last death in the group [7, 9]: 48 days
- ILS (%), Increase in Life Span ([7]; 40 mg/kg, vs solvent group MST): −10.87%

Compound: FC(F)(F)c1ccc(CNc2ccc(Cc3c[nH]c4ncc(Cl)cc34)cn2)cn1 [PLX3397, Pexidartinib, reference compound]
- IC50 (BMDM cells): 30 ± 9 nM

Compound: Yervoy: an anti-CTLA-4 antibody
- patients experiencing immune-related adverse events [8]: up to 60%
- share of immune-related adverse events that were severe (grade 3-4) [8]: 10-30%

Reference: patent publication US20230382871A1, “CSF1R KINASE INHIBITOR AND USE THEREOF” (SHANGHAI INSTITUTE OF MATERIA MEDICA, CHINESE ACADEMY OF …, priority 2020, published 2023)
